Patent US20050048508A1, “Trehalose receptor and method for detecting trehalose with the same” (KABUSHIKI KAISHA HAYASHIBARA SEIBUTSU KAGAKU KENKYUJO, priority 2002, published 2005)

Molecular target: T1, T1R2 with G protein α-subunits (α15 and α16/Z chimeric protein) (Mus musculus, UniProt Q925I4, E350G/G527D/P352R/R175Q)
T1 construct: expressed in transfected cells; host or cells: 293 cells, RCB 1637 (human embryonic kidney)
T1 sequence (Q925I4 20-843 R175Q/E350G/P352R/G527D): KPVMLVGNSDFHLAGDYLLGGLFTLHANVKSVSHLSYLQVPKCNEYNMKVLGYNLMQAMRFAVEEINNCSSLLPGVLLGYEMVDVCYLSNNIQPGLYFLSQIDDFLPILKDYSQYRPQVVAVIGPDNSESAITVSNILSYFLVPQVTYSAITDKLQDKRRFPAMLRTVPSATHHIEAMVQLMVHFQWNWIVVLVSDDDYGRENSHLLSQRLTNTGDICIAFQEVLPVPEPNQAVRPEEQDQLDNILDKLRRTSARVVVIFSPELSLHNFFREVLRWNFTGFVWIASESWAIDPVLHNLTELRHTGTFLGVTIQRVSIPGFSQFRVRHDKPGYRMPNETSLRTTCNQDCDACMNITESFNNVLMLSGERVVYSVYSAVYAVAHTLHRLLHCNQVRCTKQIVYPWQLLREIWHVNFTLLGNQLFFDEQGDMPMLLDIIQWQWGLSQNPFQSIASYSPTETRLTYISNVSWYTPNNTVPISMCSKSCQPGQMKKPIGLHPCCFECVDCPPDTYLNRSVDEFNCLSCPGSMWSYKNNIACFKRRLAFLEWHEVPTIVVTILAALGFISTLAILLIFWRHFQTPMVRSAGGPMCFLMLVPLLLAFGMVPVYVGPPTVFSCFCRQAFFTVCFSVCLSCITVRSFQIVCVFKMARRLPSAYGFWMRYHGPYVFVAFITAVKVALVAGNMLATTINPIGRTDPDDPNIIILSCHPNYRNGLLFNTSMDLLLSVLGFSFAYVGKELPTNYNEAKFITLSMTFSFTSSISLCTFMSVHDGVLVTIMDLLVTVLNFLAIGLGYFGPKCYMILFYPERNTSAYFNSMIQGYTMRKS
Test: Intracellular calcium ion assay, 293 cells coexpressing G protein α-subunits and T1R2
Type: cell-based
Conditions: 293 cells: T1R2 + G protein α-subunits; 0.67 ml of 1 M saccharide solution added to 2 ml cell suspension; FLUO-4 AM
Experimental: The coexpression vector for the G protein α-subunit α15 and the G protein α16/Z chimeric protein (hereinafter designated as “G protein α-subunits”) obtained in Example 1-3 was gene transferred to 293 cells, RCB 1637, a human embryonic kidney cell line, available from the Riken Bioresource Center, Ibaraki, Japan, by conventional lipofection. The gene transferred cells were suspended in Dulbecco's Modified Eagle's Medium (D-MEM) supplemented with 1 mg/L of “PUROMYCIN”, a trade mane of puromycin commercialized by Edge Biosystems, MD, USA, and 10% (v/v) of fetal calf serum to give a cell density of 2×10^6 cells/ml and cultured in a plastic petri dish for cell culture. […]
The captioned reactivity test was conducted according to a conventional intracellular calcium ion assay: 293 Cells prepared in Example 3, capable of coexpressing the G protein α-subunits and the sweet taste receptor(s), were cultured in a plastic petri dish for cell culture until reaching its confluent phase. […] Two milliliters of the resultant cell suspension was injected into a glass cuvette, commercialized by Hitachi, Ltd., Tokyo, Japan, and analyzed on “HITACHI 650-40”, a fluorescence spectrophotometer commercialized by Hitachi, Ltd., Tokyo, Japan. […]

Influx of calcium ion	Structure (SMILES)
Negative	OC[C@H]1O[C@@](CO)(O[C@H]2O[C@H](CO)[C@@H](O)[C@H](O)[C@H]2O)[C@@H](O)[C@@H]1O [Sucrose, reference compound]
Negative	OC[C@H]1O[C@H](O[C@H]2O[C@H](CO)[C@@H](O)[C@H](O)[C@H]2O)[C@H](O)[C@@H](O)[C@@H]1O [Trehalose]
